Reference: patent US20130338176A1, “METHODS OF PREVENTING AND TREATING HYPERLIPIDEMIA OR ATHEROSCLEROSIS” (The Trustees of Columbia University in the City of New York, priority 2010, published 2013)

Columns and labels:
ApoE−/− mice [1] = assay: Plasma cholesterol, triglyceride, glycerol and free fatty acid levels, ApoE−/− mice; type: in vivo
Text: (§1) To study the effect of gut-derived serum or plasma serotonin on the development of atherosclerosis, two well-studied genetic mouse models of hypercholesterolemia and atherosclerosis were used, namely mice with deletions in both copies of the apoliprotein E gene (referred to as ApoE−/− mice) and mice carrying deletions of both copies of the low density lipoprotein receptor gene (LDLR−/− mice). These mice have elevated blood cholesterol levels due to a defect in hepatic clearance of cholesterol containing very low density lipoproteins and low density lipoproteins (Ishibashi et al., 1993, J. Clin. Invest. 92:883-893; Plump et al., 1992, Cell 71:343-353). To accelerate the process of atherosclerotic plaque development, the mice were placed on a high cholesterol rodent diet at 5 weeks of age and fed this diet for 12 weeks. During this period, the mice were orally administrated placebo (diluent) or LP-533401, an inhibitor of tryptophan hydroxylase 1 (TPH1), the key enzyme required for serum or plasma serotonin synthesis, at the dose of 200 mg per kg of body weight per day (FIG. 1).
(§2) Cholesterol, triglycerides, glycerol, and free fatty acids were measured in plasma from 4 hours fasted mice using commercially available kits (Cholesterol E, Wako, Cat. No. 439-17501; Triglycerides determination kit, Sigma, Cat. No. TR0100-1KT (measures both triglycerides and glycerol), HR Series NEFA-HR, Wako, Cat. No. 999-34691) according to the manufacturer's instructions.

LDLR−/− mice [2] = assay: Atherosclerotic plaque area in Oil Red O stained aortas, LDLR−/− mice; type: in vivo; conditions: vs placebo
Text: as §1, with “During this period, the mice were orally administrated placebo (diluent) or LP-533401, an inhibitor of tryptophan hydroxylase 1 (TPH1), the key enzyme required for serum or plasma serotonin synthesis, at the dose of 200 mg per kg of body weight per day (FIG. 1).” left out
(§3) After 12 weeks of high cholesterol diet and administration of therapeutic agent or placebo, the mice were sacrificed to determine the amount of atheromas in their aortas. […] A quantitative computer-assisted image analysis (ImageJ) of the plaque staining areas was performed and correlated with the whole vessel wall areas.

wild type mice = assay: Plasma cholesterol, triglyceride, glycerol and free fatty acid levels, wild type mice; type: in vivo; conditions: vs placebo
Protocol: as §2

ApoE−/− mice [3] = assay: Plasma serotonin determination (ELISA), ApoE−/− mice; type: in vivo; conditions: high cholesterol diet 12 weeks, 200 mg per kg per day orally, vs placebo
Text: as §1
Serotonin content in the plasma was determined using Serotonin research ELISA (IBL, Cat. No. IB89540) according to the manufacturer's instructions.

LDLR−/− mice [4] = assay: Plasma cholesterol and triglyceride levels, LDLR−/− mice; type: in vivo; conditions: high cholesterol diet, vs placebo
Text: as §1, with “During this period, the mice were orally administrated placebo (diluent) or LP-533401, an inhibitor of tryptophan hydroxylase 1 (TPH1), the key enzyme required for serum or plasma serotonin synthesis, at the dose of 200 mg per kg of body weight per day (FIG. 1).” left out
as §2

ApoE−/− mice [5] = assay: Atherosclerotic plaque area in Oil Red O stained aortas, ApoE−/− mice; type: in vivo; conditions: vs placebo
Text: as §1, with “During this period, the mice were orally administrated placebo (diluent) or LP-533401, an inhibitor of tryptophan hydroxylase 1 (TPH1), the key enzyme required for serum or plasma serotonin synthesis, at the dose of 200 mg per kg of body weight per day (FIG. 1).” left out
as §3

adipose tissue explants [6] = assay: Adipose tissue explants, FFA and glycerol release on stimulation with serotonin; type: cell-based, mice; conditions: white adipose tissue explants, ex vivo
Protocol: (§4) Epigonadal fat pads were isolated from 8 week old wild type male mice, cut into 20 mg fragments, and placed in culture medium (DMEM low glucose, 0.1% bovine serum albumin, both from Invitrogen) in a cell incubator (37° C., 5% CO2 atmosphere) for 2 h. After this time, the fat explants were stimulated for 2 h with different concentrations of serotonin. Concentrations of free fatty acids (FFA) and glycerol were measured in the medium. For gene expression analysis, tissue was homogenized in TRIZOL® reagent (Sigma) and RNA was isolated according to the manufacturer's instructions. The RNA was used as a template for cDNA synthesis (cDNA synthesis kit, Invitrogen). The relative gene expression was quantified using Real Time PCR.

adipose tissue explants [7] = assay: Adipose tissue explants, mRNA expression of lipolysis genes (Real Time PCR); type: cell-based, mice; conditions: 25 μM serotonin, vs untreated control
Protocol: as §4

[8] = ApoE−/− mice fed high cholesterol diet, vs placebo
[9] = ApoE−/− mice fed normal rodent chow diet, vs placebo
[10] = 2 h stimulation, all tested concentrations

Q: Which FFA levels (ApoE−/− mice [1]; [8]) does the source give for `Nc1nc(OC(c2ccc(-c3cccc(F)c3)cc2)C(F)(F)F)cc(-c2ccc(C[C@H](N)C(=O)O)cc2)n1` (stereo partly drawn) [LP-533401] here?
A: The FFA levels was “reduced”.

Q: And the glycerol levels (ApoE−/− mice [1]; [8])?
A: The glycerol levels was “reduced”.

Q: And the FFA levels (ApoE−/− mice [1]; [9])?
A: The FFA levels was “reduced”.

Q: And the glycerol levels (ApoE−/− mice [1]; [9])?
A: The glycerol levels was “reduced”.

Q: And the “cholesterol levels in plasma, reduced in comparison to placebo” value (ApoE−/− mice [1]; ApoE−/− mice, high cholesterol diet, 200 mg per kg per day orally, 4 hours fasted)?
A: The value was 30%.

Q: And the triglyceride levels (ApoE−/− mice [1]; ApoE−/− mice, high cholesterol diet, vs placebo)?
A: Its triglyceride levels is “does not alter triglyceride levels”.

Q: And the “reduction in the amount of atherosclerotic plaques” value (LDLR−/− mice [2]; high cholesterol diet 12 weeks, 200 mg per kg per day orally)?
A: The value was 40%.

Q: And the “atheroma formation” value (LDLR−/− mice [2]; FIG. 3)?
A: The value was “lowers atheroma formation”.

Q: What about the FFA levels (wild type mice) of the same molecule?
A: The FFA levels was “reduced”.

Q: What about the cholesterol levels (wild type mice) of the same molecule?
A: Its cholesterol levels is “did not alter cholesterol levels”.

Q: And the glycerol levels (wild type mice)?
A: Its glycerol levels is “reduced”.

Q: And the triglyceride levels (wild type mice)?
A: The triglyceride levels was “lowers triglyceride levels”.

Q: What about the “reduction of plasma serotonin levels” value (ApoE−/− mice [3]) of the same molecule?
A: The value was 80%.

Q: What about the triglyceride levels (LDLR−/− mice [4]) of the same molecule?
A: The triglyceride levels was “does not alter triglyceride levels”.

Q: And the “reduction of the area occupied by atherosclerotic plaques” value (ApoE−/− mice [5]; high cholesterol diet 12 weeks, 200 mg per kg of body weight per day orally)?
A: The value was 44%.

Q: What about the “atheroma formation” value (ApoE−/− mice [5]; FIG. 2) of the same molecule?
A: Its value is “decreased atheroma formation”.

Q: `NCCc1c[nH]c2ccc(O)cc12` [serotonin, 5-hydroxytryptamine] was tested. Which “concentration giving the highest stimulation of FFA and glycerol secretion” value (adipose tissue explants [6]) did it give?
A: The value was 25 µM.

Q: What about the “secretion of FFA from the adipose tissue” value (adipose tissue explants [6]; [10]) of the same molecule?
A: Its value is “stimulated secretion”.

Q: And the “secretion of glycerol from the adipose tissue” value (adipose tissue explants [6]; [10])?
A: The value was “stimulated secretion”.

Q: What about the “expression levels of CGI58” value (adipose tissue explants [7]) of the same molecule?
A: The value was “does not influence the expression levels”.

Q: And the “expression levels of GOS2” value (adipose tissue explants [7])?
A: Its value is “does not influence the expression levels”.

Q: And the “expression levels of perilipin” value (adipose tissue explants [7])?
A: The value was “does not influence the expression levels”.

Q: And the “expression of adipose triglyceride lipase (ATGL)” value (adipose tissue explants [7])?
A: The value was “does not affect”.

Q: And the “expression of hormone sensitive lipase (HSL)” value (adipose tissue explants [7])?
A: Its value is “promotes the expression”.
